# Measured values taken from patent US11059878B2, “Therapeutic targeting of SET1B/compass pathway for treating cancers” (Northwestern University, priority 2016, dated 2021).
# How the values were obtained:
# [1] = mice treated with 50 mg/kg AdipoRon; cited from earlier work
# [2] = cited from earlier work
# [3] = system: MDA-MB-231, MDA-MB-468, and LM2 cells; assay: Colony formation of triple-negative breast cancer lines, crystal violet staining; type: cell-based, human
# Experimental: FIG. 6. Targeting AdipoR1 signaling in human TNBC. A) MDA-MB-231, MDA-MB-468 and MCF7 cells were infected with lentiviruses inducibly expressing either GFP or GFP-ADIPOR1. After neomycin selection, the stably transfected cells were treated with DMSO or doxycycline (DOX). The induced GFP or GFP-AdipoR1 was determined by western blot in three cell lines, n=3. B) The proliferation ability of GFP or GFP-ADIPOR1 inducible cell lines were determined by cell counting, n=3, Student's t test was used for statistical analysis. **P<0.01; *P<0.05. Error bars represent sd. C) The GFP or GFP-ADIPOR1 inducible cell lines were seeded in 6-well plates at the concentration of 4×10^4 living cells per well. The cells were then treated with DMSO or doxycycline. The cell survival was shown six days after doxycycline treatment by crystal violet staining. D) Quantification of crystal violet staining was determined as described in materials section. n=4, Student's t test was used for statistical analysis. **P<0.01; *P<0.05. Error bars represent sd. […] F) Quantification of crystal violet staining was determined as described in materials section. n=4, Student's t test was used for statistical analysis. **P<0.01; *P<0.05. […] They were treated with either PBS or AdipoRon (50 mg/kg) for 10 times, and the tumor size (G) and animal survival (H) was monitored. Tumor growth was measured two weeks after inoculation (n=7). […]
# LM2 cells = assay: LM2 cell fat pad xenograft in nude mice, treatment assay; type: in vivo
# Experimental: FIG. 6. Targeting AdipoR1 signaling in human TNBC. A) MDA-MB-231, MDA-MB-468 and MCF7 cells were infected with lentiviruses inducibly expressing either GFP or GFP-ADIPOR1. After neomycin selection, the stably transfected cells were treated with DMSO or doxycycline (DOX). The induced GFP or GFP-AdipoR1 was determined by western blot in three cell lines, n=3. B) The proliferation ability of GFP or GFP-ADIPOR1 inducible cell lines were determined by cell counting, n=3, Student's t test was used for statistical analysis. **P<0.01; *P<0.05. Error bars represent sd. C) The GFP or GFP-ADIPOR1 inducible cell lines were seeded in 6-well plates at the concentration of 4×10^4 living cells per well. The cells were then treated with DMSO or doxycycline. The cell survival was shown six days after doxycycline treatment by crystal violet staining. D) Quantification of crystal violet staining was determined as described in materials section. n=4, Student's t test was used for statistical analysis. **P<0.01; *P<0.05. Error bars represent sd. E) MDA-MB-231, MDA-MB-468, and LM2 cells were seeded in 6-well plates at the concentration of 200 cells per well. […] F) Quantification of crystal violet staining was determined as described in materials section. n=4, Student's t test was used for statistical analysis. **P<0.01; *P<0.05. […] They were treated with either PBS or AdipoRon (50 mg/kg) for 10 times, and the tumor size (G) and animal survival (H) was monitored. Tumor growth was measured two weeks after inoculation (n=7). […]
# FIG. 14. […] They were treated with either PBS or AdipoRon (50 mg/kg and 100 mg/kg, respectively) for 10 times, and the tumor size was monitored. Tumor growth was measured two weeks after inoculation (n=8). […]
# Animal experiments. […] Tumor growth was monitored every other day two weeks after inoculation. […] They were treated with either PBS or AdipoRon (50 mg/kg) for 10 times, and the tumor size (G) and animal survival (H) was monitored. Tumor growth was measured two weeks after inoculation.
# SET1B = SET1B protein level by western blot after AdipoRON treatment; type: cell-based, human; conditions: MDA-MB-231 cells, various concentrations for 24 hours
# Experimental: FIG. 13. Depletion of AdipoR1 by CRISPR-CAS9 partially rescued cell death induced by SET1B depletion. A) Design of CRIPSR-Cas9 targeting ADIPOR1 gene locus. B) PCR was performed for genotyping of AdipoR1 wildtype and deleted cells. C) Total RNA was extracted from AdipoR1-WT and AdipoR1-KO cells and subjected to RNA-seq, three replicates. Representative tracks of AdipoR1 gene are shown. D) SET1B was further knocked down in ADIPOR1-WT and ADIPOR1-KO cells, respectively. After puromycin selection for 48 hours, 1×10^5 cells were seeded in 6-well plate, the cell viability of SET1B knocked down cells was determined by cell counting. E) The cells from panel C were seeded in 6-well plate (1×10^4) and grown for one week before crystal violet staining. F) Quantification of crystal violet staining was determined as described in materials section. n=4, Student's t test was used for statistical analysis. **P<0.01; *P<0.05. Error bars represent sd. […] H) Cell morphology of GFP or GFP-AdipoR1 inducible cell lines after DMSO or Dox treatment, n=3. I) MCF7 cells were seeded in 6-well plates at the concentration of 500 cells per well. The cells were treated with either DMSO or AdipoRON (10 μM) for three weeks, and the colonies were stained with crystal violet. J) MDA-MB-231 cells were treated with various concentrations of AdipoRON for 24 hours. The protein level of SET1B was determined by western blot. […]
smiles,measurement,setting,value
O=C(COc1ccc(C(=O)c2ccccc2)cc1)NC1CCN(Cc2ccccc2)CC1 [AdipoRon],plasma concentration,[1],11.6 µM
same,toxicity in vivo,[2],low toxicity
same,anti-tumor effect in vitro,[3]; 10 μM,dramatic anti-tumor effect
same,colony formation ability,"[3]; AdipoRON 10 μM for three weeks, multiple triple-negative breast cancer lines, 200 cells per well",significantly inhibited
same,drug effect (tumor size) by intraperitoneal injection,"LM2 cells; intraperitoneal injection, 50 mg/kg and 100 mg/kg, 10 times",consistent result
same,tumor size / tumor growth,"LM2 cells; oral 50 mg/kg, started 12 days after transplantation",significantly reduced
same,animal survival / lifespan,"LM2 cells; oral 50 mg/kg, started 12 days after transplantation, 50 mg/kg",significantly increased
same,SET1B protein level,SET1B,does not affect
